The subject of experiment [1] is human pulmonary artery smooth muscle cells (PASMC). Briefly: ET-1 induced loss of mitochondrial membrane potential (JC-1 fluorescence). The format is cell-based. The procedure:
Human pulmonary Artery Smooth Muscle cells (PASMC) were grown to confluence on 10×22 mm glass cover slips in Clonetics smooth muscle basal media supplemented with growth hormones and fetal bovine serum. The cells on glass cover slips were then placed in 3 ml Hank's Balanced Salt Solution (HBSS) supplemented with […] of the mitochondrial dye JC-1 and incubated at 37° C. for 30 minute. The cells on the cover slips were then washed with 3 ml HBSS and mounted in a cuvette in a spectrofluorimeter with 3 ml HBSS. The emission spectra with excitation at 490 nm were taken over the range of 520 nm to 620 nm (150 sec). […] (0.1% acetone) FCCP, which leads complete depolarization of the mitochondrial membrane potential, was added at the end of each experiment. The spectra were normalized by dividing them by the fluorescence at 570 nm. The value obtained after FCCP treatment was assigned a value of 0 mV and the individual FCCP ratio was subtracted from each ratio point. The control (JC-1) fluorescence ratio was then assigned a value of +224 mV and the membrane potential [DmH(mV)] for each experimental point were calculated accordingly.
The cells were treated with 0.1% DMSO (vehicle for Compound 1), 1 nM Endothelin-1 (ET-1) or 1 nM ET-1 and 100 nM Compound 1 and scans were taken after 10, 30 and 60 minutes of the incubation. FCCP was added at the end and incubated for 60 minutes before taking scan. N=5 cover slips for all conditions.
The cells were treated with 0.1% DMSO or 1 nm Endothelin-1 (ET-1) and scans were taken after 30 minutes of incubation. The medium was then removed by washing the cells with fresh HBSS and scans were taken after 30 minutes. FCCP was added to the dish at the end and incubated for 60 minutes before taking scan. N=5 cover slips. In other set of 5 cover slips 1 nM Endothelin-1 (ET-1) and 100 nM Compound 1 were added and scans were taken after 30 minutes of incubation. The medium was then removed by washing the cells with fresh HBSS and 100 nM Compound 1 was added on top of it. Scans were taken after 30 minutes. FCCP was added at the end and incubated for 60 minutes before taking scan. N=3 cover slips.
The cells were treated with 1 nM Endothelin-1 (ET-1) and scans were taken after 30 minutes of incubation. The medium was then removed by washing the cells with fresh HBSS and HBSS supplemented with 100 nM Compound 1 was added to the cells. Scans were taken after 30 minutes. FCCP was added at the end and incubated for 60 minutes before taking scan. N=5 cover slips for all conditions.

In experiment [2] the test system is Human lung alveolar type II cells (A549). The experiment is described as follows: Cytochrome c translocation into the cytosol induced by cigarette smoke extract (cytochrome c ELISA). The format is cell-based. The note with it: 100 nM Compound A with 1%, 2.5% or 5% CSE, 24 hrs. The procedure: Smoke from 8 cigarettes were bubbled slowly through 100 ml of serum free culture medium and the resulting suspension was filtered through 0.20 μm filter. The solution was considered as 100% cigarette smoke extract (CSE). Human lung alveolar type II cells (A549) were seeded 1.5×10^5 cells per well in a 96 well plate and incubated for 48 hrs. The cells were then treated separately with either 100 nM Compound A (13,14-dihydro-15-keto-16,16-difluoro-18(S)-methyl-PGE1) or 1%, 2.5% and 5% CSE. In other sets, 100 nM Compound A was added along with 1%, 2.5% or 5% CSE. All incubations were done at 37° C. for 24 hrs. After 24 hr treatment, the cells were washed with 0-4° C. PBS three times. Measurement of cytochrome c that was translocated into the cytosol, a marker of cellular injury, was performed with a cytochrome c ELISA assay kit according to the instructions provided with the kit.
For orientation: An ELISA detects its analyte on a solid surface through an enzyme-linked reagent.

No end group written: not given here.

Turning to `CCCCC(F)(F)C(=O)CCC1CCC(=O)C1CCCCCCC(=O)O` (stereo not shown) [Compound 1, 11-deoxy-13,14-dihydro-15-keto-16,16-difluoro-PGE1], the “protection against ET-1 induced loss of membrane potential (in words)” value in experiment [1] (100 nM Compound 1 with 1 nM ET-1, 10, 30 and 60 min) was “protects against ET-1 induced loss of membrane potential at all times tested”. Besides, the mitochondrial membrane potential came to 137.1±4.7 mV in experiment [1] (Example 1-2, 1 nM ET-1 along with 100 nM Compound 1, 30 min); 115.3±2.3 mV in experiment [1] (Example 1-2, after removal of ET-1 with continued 100 nM Compound 1, further 30 min); 114.2±2.6 mV in experiment [1] (PASMC, 1 nM ET-1 and 100 nM Compound 1, 10 min, control taken as 224 mV); 104.02±5.0 mV in experiment [1] (PASMC, 1 nM ET-1 and 100 nM Compound 1, 30 min, control taken as 224 mV); 73.1±2.4 mV in experiment [1] (PASMC, 1 nM ET-1 and 100 nM Compound 1, 60 min, control taken as 224 mV). In experiment [1] (Example 1-3, ET-1 30 min, then ET-1 removed and 100 nM Compound 1 added, 30 min), the “mitochondrial membrane potential (rescue)” value is given as 77.2±2.7 mV.
Turning to `CC[C@H](C)CC(F)(F)C(=O)CC[C@H]1[C@H](O)CC(=O)[C@@H]1CCCCCCC(=O)O` [Compound A, 13,14-dihydro-15-keto-16,16-difluoro-18(S)-methyl-PGE1], the “cytochrome c translocation by CSE (in words)” value in experiment [2] is “protected against cytochrome c translocation by CSE”.
With “Endothelin-1 (CSCSSLMDKECVYFCHLDIIW; ends and bridges not checked; cysteine pairing not given here; UniProt P05305 53-73, looked up) [ET-1, reference compound]”, the mitochondrial membrane potential in experiment [1] (Example 1-2, ET-1 30 min, then ET-1 removed, scan after 30 min) was 49.3±2.2 mV; in experiment [1] (Examples 1-2 and 1-3, ET-1 alone, 30 min) it was 50.3±5.6 mV; in experiment [1] (PASMC, 1 nM ET-1 alone, 10 min, control taken as 224 mV), 54.5±4.3 mV; in experiment [1] (PASMC, 1 nM ET-1 alone, 30 min (Example 1-1), control taken as 224 mV), 28.0±2.8 mV; in experiment [1] (PASMC, 1 nM ET-1 alone, 60 min, control taken as 224 mV) it was 13.1±1.0 mV.

The values are drawn from US20080207759A1, “METHOD FOR PROTECTING MITOCHONDRIA” (SUCAMPO AG, priority 2007, published 2008).
